Data reported in paper PMC3261798, “Design, Synthesis, and Biological Evaluation of PKD Inhibitors” (Pharmaceutics, 2011).
Several values for one entry are separate records, joined by “and”; a condition that tells them apart may be missing. Identical values can stand only once. Values belong to the compound of their own block, whether it stands above or below them.

Legend:
[1] = target: T1, PKD1 (Homo sapiens, UniProt Q15139); assay: % PKD1 activity at 1 μM (single concentration; assay format not stated); assay type: biochemical; settings: compound at 1 μM
T1 sequence (Q15139 1-912): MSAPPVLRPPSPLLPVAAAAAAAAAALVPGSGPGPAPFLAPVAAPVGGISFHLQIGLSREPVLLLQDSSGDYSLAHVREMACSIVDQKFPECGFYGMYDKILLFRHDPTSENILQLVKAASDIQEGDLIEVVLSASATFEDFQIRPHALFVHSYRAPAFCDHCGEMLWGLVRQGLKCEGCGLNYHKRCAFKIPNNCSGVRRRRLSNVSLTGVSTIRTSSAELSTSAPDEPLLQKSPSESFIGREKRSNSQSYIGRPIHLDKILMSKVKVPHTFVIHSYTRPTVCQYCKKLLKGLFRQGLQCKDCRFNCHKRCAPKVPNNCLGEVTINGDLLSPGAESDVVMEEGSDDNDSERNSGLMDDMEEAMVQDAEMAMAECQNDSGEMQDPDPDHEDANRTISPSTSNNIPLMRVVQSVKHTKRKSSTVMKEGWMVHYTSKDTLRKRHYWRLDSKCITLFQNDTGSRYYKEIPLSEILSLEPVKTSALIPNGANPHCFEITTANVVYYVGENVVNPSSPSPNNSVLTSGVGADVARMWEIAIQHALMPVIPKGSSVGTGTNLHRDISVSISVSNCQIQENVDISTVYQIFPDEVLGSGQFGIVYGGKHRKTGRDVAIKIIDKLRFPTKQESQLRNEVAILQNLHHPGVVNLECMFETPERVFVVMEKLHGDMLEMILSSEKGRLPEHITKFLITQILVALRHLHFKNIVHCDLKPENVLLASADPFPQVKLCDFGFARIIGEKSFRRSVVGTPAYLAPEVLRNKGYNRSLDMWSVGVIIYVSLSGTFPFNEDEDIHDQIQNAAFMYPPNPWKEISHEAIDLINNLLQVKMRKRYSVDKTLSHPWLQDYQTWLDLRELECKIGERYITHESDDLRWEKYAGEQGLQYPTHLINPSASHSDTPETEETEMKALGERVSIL

[2] = target: T1, PKD1; assay: Cellular PKD1 inhibition: densitometry of Western blots for PKD1 autophosphorylation at S916 in PMA-stimulated LNCaP cells; assay type: cell-based; settings: for EC50: PMA-induced autophosphorylation of endogenous PKD1 in LNCaP prostate cancer cells; for fold improvement in cellular activity over CID755673: cellular EC50 relative to CID755673
Procedure: Inhibition of PKD 1 in cells was determined by densitometry analysis of Western blotting data for PKD1 autophosphorylation at Ser^916 in LNCaP cells as previously described. LNCaP cells were pre-treated with PKD inhibitors for 45 min at various concentrations, and then stimulated with 10 nM phorbol 12-myristate 13-acetate (PMA) for 20 min. Cells were then collected and lysed in lysis buffer containing 200 mM Tris-HCl, pH 7.4, 100 μM 4-(2-aminoethyl) benzenesulfonyl fluoride, 1 mM EGTA, and 1% Triton X-100. Cell lysates were probed by Western blot analysis using primary antibodies targeting p-S916-PKD1 (Millipore), PKD1 (Cell Signaling Technology), or GAPDH. Densitometry analysis of visualized bands was used to determine the cellular IC50 values for PKD1 inhibition.

[3] = target: T1, PKD1; assay: In vitro radiometric PKD kinase activity assay; assay type: biochemical; set-up: purchased Biomol International; settings: for fold improvement in PKD1 potency over CID755673: relative to parent CID755673; for inhibitory activity against PKD (in words): preliminary biological data for kmg-NB5-13 and kmg-NB5-15
Procedure: In vitro radiometric PKD kinase assays were conducted as previously described. Briefly, 50 ng recombinant human PKD1 (Biomol International, Plymouth Meeting, PA, USA) was incubated at 30 °C for 10 min with a reaction mixture containing 2.5 μg syntide-2 (Sigma), 70 μM ATP, and 1 μCi γ-^32 P-ATP (PerkinElmer, Boston, MA, USA) in kinase buffer (50 mM Tris-HCl pH 7.5, […], and 10 mM […]). 25 μL of the reaction mixture was then spotted on Whatman P81 filter paper (Whatman Inc., Clifton, NJ, USA), and filter papers were washed three times with 0.5% phosphoric acid, dried, then counted using a Beckman LS6500 multi-purpose scintillation counter.

[4] = test system: all PKD isoforms; settings: cited from earlier work
[5] = Preliminary in vivo studies (plasma half-life, metabolism; data not shown); settings: for plasma half-life: preliminary in vivo studies, data not shown
[6] = target: T1, PKD1; assay: IMAP-based PKD Fluorescence Polarization (FP) assay, automated HTS format; assay type: biochemical; settings: mean ± SEM, n = number of independent experiments
Procedure: An automated, HTS formatted IMAP-based PKD Fluorescence Polarization (FP) assay was used to assess the specificity of the PKD analogs as previously described. […] Kinase reactions were incubated for 90 min at room temperature and stopped by the addition of IMAP binding reagent. Assay plates were then incubated for 2 h and IMAP-based FP data were captured on a Molecular Devices Spectra-Max M5 (Sunnyvale, CA, USA).

[7] = Stability in protic solvents; assay type: physicochemical; settings: attributed to nucleophilic attack at C-4 of the pyrimidine
[8] = Aqueous solubility; assay type: physicochemical; settings: aqueous medium with lipophilic solubilizing agents; even in the presence of lipophilic solubilizing agents
[9] = mean ± SEM, n = number of independent experiments, read-out: IC50 Radiometric PKD1
[10] = PKD1 autophosphorylation at S916 in LNCaP cells, mean ± SEM

SMILES: O=C1NCCSc2c1sc1ccc(O)c(I)c21 [kb-NB165-31, 3,4-Dihydro-9-hydroxy-10-iodo-[1]benzothieno[2,3-f]-1,4-thiazepin-5(2H)-one]
remaining activity at 1 µM [1]: 13.6%
melting point: 128 °C (dec.)
fold lower cellular activity than kb-NB142-70 ([2]; relative to kb-NB142-70): 4 fold
IC50 ([3]; in vitro, read-out: PKD1 IC50): 114 nM
IC50 [3, 9]: 110 ± 20 nM

SMILES: CC[C@@H](N)CNc1ccnc(-c2cc(-c3cnn(C)c3)ccc2O)n1.Cl.Cl [CRT0066101]
IC50s, all isoforms of PKD [4]: single-digit nanomolar

melting point: 193 °C (dec.)
IC50 [2, 10]: 2200 nM and 2170 nM
IC50 ([3]; in vitro, read-out: PKD1 IC50): 74.9 nM
IC50 [3, 9]: 80 ± 10 nM
SMILES: [N-]=[N+]=Nc1ccc2sc3c(c2c1)SCCNC3=O [mcf292-08, 3,4-Dihydro-9-azido-[1]benzothieno[2,3-f]-1,4-thiazepin-5(2H)-one]

SMILES: COc1ccc2sc3c(c2c1)SCCNC3=O [kb-NB165-09, 3,4-Dihydro-9-methoxy-[1]benzothieno[2,3-f]-1,4-thiazepin-5(2H)-one]
IC50 [2, 10]: 3130 ± 540 nM
EC50 [2]: 3100 nM
fold improvement in cellular activity over CID755673 [2]: ca. 5 fold
plasma half-life [5]: short
IC50 [3, 9]: 80 ± 10 nM
fold improvement in PKD1 potency over CID755673 [3]: ca. 7 fold

SMILES: O=C1NCCSc2c1sc1ccc(O)cc21 [kb-NB142-70, 3,4-Dihydro-9-hydroxy-[1]benzothieno[2,3-f]-1,4-thiazepin-5(2H)-one]
IC50 [6]: 710 ± 20 nM
IC50 [2, 10]: 2220 ± 590 nM
EC50 [2]: 2200 nM
fold improvement in cellular activity over CID755673 [2]: ca. 5 fold
plasma half-life [5]: short
major metabolic pathway ([5]; preliminary results from an animal model): glucuronidation of kb-NB142-70 at the phenolic position to be a major metabolic pathway
IC50 [3, 9]: 28 ± 2 nM
fold improvement in PKD1 potency over CID755673 [3]: ~7 fold

SMILES: C[C@H](C#N)Nc1cccc(-c2cc(-c3ccc(CNC4CCOCC4)cc3)on2)c1 [Compound 2b]
IC50s, all PKD isoforms [4]: low nanomolar
fold preference for PKD1 versus PKD2 [4]: 9 fold
fold preference for PKD1 versus PKD3 [4]: 3 fold

SMILES: NC(=O)c1cc(-c2ccnc(NC3CCCCC3)c2)nc(N2CCNCC2)c1 [BPKDi]
IC50 values, all three isoforms of PKD [4]: single digit nanomolar

SMILES: O=C1NCCCSc2c1sc1ccc(O)cc21 [kb-NB165-92, 2,3,4,5-Tetrahydro-10-hydroxybenzo[b]thieno[2,3-f]-1,5-thiazocin-6-one]
remaining activity at 1 µM [1]: 16.7%
IC50 [2, 10]: 2560 ± 660 nM
IC50 [3, 9]: 110 ± 10 nM

SMILES: O=C1NCCCc2c1oc1ccc(O)cc21 [CID755673, 7-Hydroxy-2,3,4,5-tetrahydro-[1]benzoxolo[2,3-c]azepin-1-one]
IC50 [4]: 200 to 300 nM
IC50 [6]: 640 ± 30 nM
IC50 [2, 10]: 11800 ± 4000 nM
EC50 [2]: 11800 nM
IC50 [3, 9]: 180 ± 20 nM

IC50 [3, 9]: 25300 nM
inhibitory activity against PKD (in words) [3]: only weak inhibitory effect
SMILES: O=C1NCCSc2c1sc1cnc(O)nc21 [kmg-NB4-69A, 2-Hydroxy-7H,8H,9H-1,4-thiazepino[7′,6′-5,4]thiopheno[3,2-d]pyrimidin-6-one]
stability in protic solvents [7]: spontaneously degrades in protic solvents

IC50 [6]: 2140 ± 120 nM
IC50 Cellular PKD1 [2, 10]: no significant cellular activity
IC50 [3, 9]: 130 ± 10 nM
SMILES: O=C1NCCCc2c1[nH]c1ccc(O)cc21 [kb-NB123-57, 3,4,5,10-Tetrahydro-7-hydroxy-azepino[3,4-b]indol-1(2H)-one]

solubility [8]: < 400 µg/mL
melting point: 308 °C (dec.)
IC50 [2, 10]: 6800 ± 1300 nM
IC50 ([3]; in vitro, read-out: PKD1 IC50): 124 nM
IC50 [3, 9]: 120 ± 30 nM
inhibitory activity against PKD (in words) [3]: potent nanomolar inhibitor
SMILES: COc1ncc2sc3c(c2n1)SCCNC3=O [kmg-NB4-23, 2-Methoxy-7H,8H,9H-1,4-thiazepino [7′,6′-5,4]thiopheno[3,2-d]pyrimidin-6-one]
